Data from ChEMBL document CHEMBL4130489, “Triclosan-caffeic acid hybrids: Synthesis, leishmanicidal, trypanocidal and cytotoxic activities” (Eur J Med Chem, 2017).
In brackets after ≈: the same amount, converted by molar mass.

Key:
[1] = Cytotoxicity in human U937 cells assessed as reduction in cell viability incubated for 72 hrs by MTT assay; type: cell-based, U-937; settings: read-out: LC50
[2] = Selectivity index, ratio of LC50 for cytotoxicity in human U937 cells to EC50 for antileishmanial activity against GFP-tagged Leishmania panamensis MHOM/CO/87/UA140 intracellular amastigotes infected in human U937 cells; type: toxicity, cell-based
[3] = Selectivity index, ratio of LC50 for cytotoxicity in human U937 cells to EC50 for antitrypanosomal activity against Trypanosoma cruzi Tulahuen intracellular amastigotes transfected with beta-galactosidase infected in human U937 cells; type: toxicity, cell-based
Trypanosoma cruzi [4] = test: Antitrypanosomal activity against Trypanosoma cruzi Tulahuen intracellular amastigotes transfected with beta-galactosidase infected in human U937 cells incubated for 72 hrs by spectrophotometry; type: functional, organism-based; settings: U-937, 72 h
Leishmania panamensis [5] = test: Antileishmanial activity against GFP-tagged Leishmania panamensis MHOM/CO/87/UA140 intracellular amastigotes infected in human U937 cells incubated for 72 hrs by flow cytometry; type: functional, organism-based; settings: MHOM/CO/87/UA140, U-937, 72 h
Trypanosoma brucei = test: Antitrypanosomal activity against Trypanosoma brucei bloodstream forms; type: functional
Leishmania panamensis [6] = test: Antileishmanial activity against GFP-tagged Leishmania panamensis MHOM/CO/87/UA140 amastigotes infected in human U937 cells incubated for 72 hrs by flow cytometry; type: functional, organism-based; settings: MHOM/CO/87/UA140, U-937, 72 h
[7] = Cytotoxicity in human U937 cells; type: cell-based, U-937; settings: read-out: LC50 (the source's name)
Leishmania panamensis [8] = test: Antileishmanial activity against Leishmania panamensis axenic amastigotes; type: functional, organism-based
Leishmania major = test: Antileishmanial activity against Leishmania major promastigotes; type: functional, organism-based
Trypanosoma cruzi [9] = test: Antitrypanosomal activity against Trypanosoma cruzi; type: functional, organism-based

SMILES | CC50 at 72 h [1] [µM] | selectivity ratio [2] | selectivity ratio [3] | EC50 (Trypanosoma cruzi [4]; read-out: EC50) [µM] | EC50 (Leishmania panamensis [5]) [µM] | other results
O=C(/C=C/c1ccc(O)c(O)c1)OCCCCCCCOc1cc(Cl)ccc1Oc1ccc(Cl)cc1Cl | 20 | 1.72 | 2.29 | 8.69 | 11.7 | –
COc1ccc(/C=C/C(=O)OCCCOc2cc(Cl)ccc2Oc2ccc(Cl)cc2Cl)cc1OC | > 372 | > 9.77 | < 10 | > 37.2 | 38.1 | –
O=C(/C=C/c1ccc(O)c(O)c1)OCCCCOc1cc(Cl)ccc1Oc1ccc(Cl)cc1Cl | 12 | 3.16 | 1.46 | 8.25 | 3.82 | –
O=C(O)/C=C/c1ccc(O)c(O)c1 [CAFFEIC ACID] | 1110 | > 1 | > 7.07 | 157 | 1100 | –
O=C(Cn1ccnc1[N+](=O)[O-])NCc1ccccc1 [BENZNIDAZOLE] | – | – | 17 | – | – | EC50 (Trypanosoma cruzi [4]): 40.3 µM
O=C(/C=C/c1ccc(O)c(O)c1)OCCCOc1cc(Cl)ccc1Oc1ccc(Cl)cc1Cl | > 392 | > 16.1 | > 7.48 | 52.4 | 24.3 | –
COc1ccc(CCC(=O)OCCCOc2cc(Cl)ccc2Oc2ccc(Cl)cc2Cl)cc1OC | 250 | 6.2 | 7.49 | 33.3 | 40.2 | –
CC(C)CCOC(=O)/C=C/c1ccc(O)c(O)c1 | – | – | – | – | – | MIC (Trypanosoma brucei): 0.31 µg/mL (≈ 1.24 µM)
COc1ccc(/C=C/C(=O)OCCCCOc2cc(Cl)ccc2Oc2ccc(Cl)cc2Cl)cc1OC | 73.4 | 1.38 | 1.72 | 42.8 | 53.2 | –
C[C@@H]1[C@H](O)[C@@H](C)/C=C/C=C/C=C/C=C/C=C/C=C/C=C/[C@H](O[C@@H]2O[C@H](C)[C@@H](O)[C@H](N)[C@@H]2O)C[C@@H]2O[C@](O)(C[C@@H](O)C[C@@H](O)[C@H](O)CC[C@@H](O)C[C@@H](O)CC(=O)O[C@H]1C)C[C@H](O)[C@H]2C(=O)O [AMPHOTERICIN B] | – | 842 | – | – | – | –
O=C(/C=C/c1ccc(O)c(O)c1)OCCCCCCCCCOc1cc(Cl)ccc1Oc1ccc(Cl)cc1Cl | 3.62 | 0.12 | 0.09 | 41.3 | 30.2 | –
COc1ccc(/C=C/C(=O)c2ccc(OCCCCCOc3cc(Cl)ccc3Oc3ccc(Cl)cc3Cl)cc2)cc1OC | – | – | – | – | – | EC50 (Leishmania panamensis [6]): 13.5 µg/mL (≈ 21 µM); CC50 [7]: > 200 µg/mL
O=C(/C=C/c1ccc(O)c(O)c1)OCCCCCCCCCCCCOc1cc(Cl)ccc1Oc1ccc(Cl)cc1Cl | 174 | 4.08 | 5.08 | 34.2 | 42.6 | –
COc1ccc(/C=C/C(=O)OCCCCCCCOc2cc(Cl)ccc2Oc2ccc(Cl)cc2Cl)cc1OC | 337 | > 3.4 | > 12.3 | 27.4 | 99 | –
CCCCCCCCOC(=O)/C=C/c1ccc(O)c(O)c1 | – | – | – | – | – | EC50 (Leishmania panamensis [8]): 0.67 µM
O=C(/C=C/c1ccc(O)c(O)c1)OCCCCCOc1cc(Cl)ccc1Oc1ccc(Cl)cc1Cl | 8.18 | 0.53 | 0.28 | 29.7 | 15.3 | –
CC1(C)C2CCC1(C)[C@H](OC(=O)/C=C/c1ccc(O)c(O)c1)C2 (some centres not stated) | – | – | – | – | – | IC50 (Leishmania major): 48.8 µM
COc1ccc(/C=C/C(=O)c2ccc(OCCCOc3cc(Cl)ccc3Oc3ccc(Cl)cc3Cl)cc2)cc1OC | – | – | – | – | – | EC50 (Leishmania panamensis [6]): 9.4 µg/mL (≈ 15.3 µM); CC50 [7]: > 200 µg/mL
COc1ccc(/C=C/C(=O)OCCCCCCCCCOc2cc(Cl)ccc2Oc2ccc(Cl)cc2Cl)cc1OC | 107 | 2.21 | 3.24 | 33 | 48.5 | –
Oc1cc(Cl)ccc1Oc1ccc(Cl)cc1Cl [TRICLOSAN] | […] | […] | […] | 49 | – | –
O=C(/C=C/c1ccc(O)c(O)c1)O[C@@H]1[C@H](O)C[C@@](O)(C(=O)O)C[C@H]1OC(=O)/C=C/c1ccc(O)c(O)c1 | – | – | – | – | – | IC50 (Trypanosoma cruzi [9]): 286 µM
COc1ccc(/C=C/C(=O)c2ccc(OCCCCOc3cc(Cl)ccc3Oc3ccc(Cl)cc3Cl)cc2)cc1OC | – | – | – | – | – | EC50 (Leishmania panamensis [6]): 10.2 µg/mL (≈ 16.2 µM); CC50 [7]: > 200 µg/mL
O=C(/C=C/c1ccc(O)c(O)c1)OCCCCCCCCOc1cc(Cl)ccc1Oc1ccc(Cl)cc1Cl | 40.2 | 3.11 | 2.19 | 18.4 | 12.9 | –
